# Calls of active or inactive are those of the source. How the calls were made is not given here.
# Target: Trace amine-associated receptor 1 (Homo sapiens) (UniProt Q96RJ0)
# Experiment: loss of TAAR1 response after agonism – cell-based, fluorescence, human, MedChem round 1, counter-screen for TAAR1 agonist project, SAR follow-up (AID 743490)
# Conditions: hTAAR1 cells, desensitization of agonist response
# Sequence of Trace amine-associated receptor 1 (Homo sapiens) (Q96RJ0 whole entry, looked up): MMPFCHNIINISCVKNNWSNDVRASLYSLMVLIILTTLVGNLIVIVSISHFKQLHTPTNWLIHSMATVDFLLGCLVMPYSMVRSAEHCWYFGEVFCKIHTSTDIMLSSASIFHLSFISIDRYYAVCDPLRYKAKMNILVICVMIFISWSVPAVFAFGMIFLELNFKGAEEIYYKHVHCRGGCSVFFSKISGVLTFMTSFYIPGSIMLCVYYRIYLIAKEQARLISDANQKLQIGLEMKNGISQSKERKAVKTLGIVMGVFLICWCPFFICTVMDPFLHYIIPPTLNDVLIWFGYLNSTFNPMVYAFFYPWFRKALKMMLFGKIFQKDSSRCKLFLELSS
row,SMILES,IC50
1,CC1CN(CCC(=O)c2ccc3c(c2)OCCO3)CC1c1ccccc1 (stereo unspecified),4.4 µM
2,CC(CN1CCCC1Cc1ccccc1)C(=O)c1ccc2c(c1)OCCO2 (stereo unspecified),> 29.9 µM (inactive)
3,CC(CN1CCC(c2ccccc2)C1)C(=O)c1ccc2c(c1)OCCO2 (stereo unspecified),> 29.9 µM (inactive)
4,O=C(CCN1C[C@@H](C(=O)O)[C@H](c2cccc(F)c2)C1)NC1CC1,> 29.9 µM (inactive)
5,Cc1ccc(C(=O)CCN2CCC(c3ccccc3)C2)cc1 (stereo unspecified),> 29.9 µM (inactive)
6,O=C(CCN1CCC(O)(c2ccccc2)C1)c1ccc2c(c1)OCCO2 (stereo unspecified),> 29.9 µM (inactive)
7,O=C(CCN1CCC(c2ccccc2)C1)c1ccccc1 (stereo unspecified),inactive
8,O=C(CCN1CCC(O)(c2ccc(F)cc2)C1)c1ccc2c(c1)OCCO2 (stereo unspecified),> 29.9 µM (inactive)
9,O=C(CCN1C[C@@H](C(=O)O)[C@H](c2ccccc2)C1)NCc1cccs1,> 29.9 µM (inactive)
10,NC(=O)CCN1C[C@H](c2ccccc2)[C@@H]2[C@H]1C1CCN2CC1,> 29.9 µM (inactive)
11,O=C(CCN1C[C@@H](C(=O)O)[C@H](c2ccccc2)C1)NC1CCCC1,> 29.9 µM (inactive)

# — PubChem BioAssay AID743490 (The Scripps Research Institute Molecular Screening Center, 2014)
